From US12427144B2, “Compounds and methods for the targeted degradation of androgen receptor” (Arvinas Operations, Inc., priority 2019, dated 2025)

Target: T1, Androgen Receptor (AR) (Homo sapiens, UniProt P10275)
T1 construct: endogenous in cells; host or cells: VCaP
T1 sequence (P10275 1-920): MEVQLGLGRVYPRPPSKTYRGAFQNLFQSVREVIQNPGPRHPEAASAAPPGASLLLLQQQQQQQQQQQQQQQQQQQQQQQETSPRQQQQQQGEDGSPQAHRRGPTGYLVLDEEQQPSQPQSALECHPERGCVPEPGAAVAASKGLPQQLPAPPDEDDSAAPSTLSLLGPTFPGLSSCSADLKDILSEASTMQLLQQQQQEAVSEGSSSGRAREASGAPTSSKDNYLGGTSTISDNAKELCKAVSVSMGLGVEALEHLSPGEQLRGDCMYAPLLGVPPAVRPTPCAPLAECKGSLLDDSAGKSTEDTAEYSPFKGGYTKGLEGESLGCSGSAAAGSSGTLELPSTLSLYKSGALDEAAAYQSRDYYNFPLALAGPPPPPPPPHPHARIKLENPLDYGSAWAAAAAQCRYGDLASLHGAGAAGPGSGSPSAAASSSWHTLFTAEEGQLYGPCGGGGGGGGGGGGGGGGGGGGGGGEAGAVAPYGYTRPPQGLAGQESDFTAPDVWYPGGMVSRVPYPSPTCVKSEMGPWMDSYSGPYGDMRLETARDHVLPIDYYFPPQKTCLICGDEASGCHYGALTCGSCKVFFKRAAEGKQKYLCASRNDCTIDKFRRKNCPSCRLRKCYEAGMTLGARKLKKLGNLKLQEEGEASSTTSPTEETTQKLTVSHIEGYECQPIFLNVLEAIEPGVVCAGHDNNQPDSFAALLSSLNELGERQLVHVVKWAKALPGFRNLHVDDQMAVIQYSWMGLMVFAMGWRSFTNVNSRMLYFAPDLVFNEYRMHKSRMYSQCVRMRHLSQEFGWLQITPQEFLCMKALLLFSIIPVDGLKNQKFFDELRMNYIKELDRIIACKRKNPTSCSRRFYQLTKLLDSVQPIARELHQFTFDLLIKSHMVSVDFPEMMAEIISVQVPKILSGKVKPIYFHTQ
Experiment: AR immunofluorescence staining, high content imager, VCaP cells
Format: cell-based
Conditions: for DC50: AR degradation by immunofluorescence; for Dmax: maximal AR degradation
Description: AR Immunofluorescence Staining of Cells for the High Content Imager was performed as follows: Following treatment of the cells with compound (using the central 60 wells of a 96-well plate), media was removed by aspiration, followed by addition of 50 μL per well of 4% paraformaldehyde (PFA) in PBS supplemented with 2 mM MgCl2 and 2 mM CaCl2. Fixed cells were incubated at RT for 15 minutes. For particularly low adherence cell lines (e.g., VCaP), a 2× solution of 8% PFA was added directly to wells instead. Cells were washed once with 200 μL PBS/well. To permeabilize cells 50 μL/well of 0.1% Triton X-100 in PBS was added and incubated for 5 minutes. Cells were washed once with 200 μL PBSS/well. 100 μL/well of Licor Odyssey Blocking Buffer was added for 1 hour at 20° C. Wells were aspirated and AR antibody (1:1000 in Licor Odyssey blocking buffer; 50 μL/well; CST 5153s) was added. Plates were incubated overnight at 4° C. Plates were washed 3 times with 200 EL PBS/well. The appropriate secondary antibody was added (50 μL/well; diluted in Licor Odyssey blocking buffer) and incubated for 1 hour at RT in the dark as prepared below using Anti-rabbit FITC (1:5000; […]) and Phalloidin-Alexafluor 648 (1:500; […]). Cells were washed once with 200 μL PBS/well. 50 μL DAPI or Hoechst 33342 diluted 1:1000 in Licor Odyssey blocking buffer was added to the wells. Cells were washed 3 times with 200 μL PBS/well. The plates were covered with a clear plastic sealer and refrigerated in the dark until ready to analyze. The cells were analyzed using a Molecular Devices IXM high content imager and analyzed using Molecular Devices metaXpress software suite.

SMILES | DC50 | Dmax
COc1cc(O[C@H]2C(C)(C)[C@H](NC(=O)c3ccc(N4CCO[C@H](CN(C(C)C)[C@H]5C[C@@H](Oc6ccc(C(=O)N[C@H]7CCC(=O)NC7=O)c(F)c6)C5)C4)cc3)C2(C)C)ccc1C#N [Compound 43, 4-[(2R)-2-([isopropyl[(1r,3r)-3-(4-[[(3S)-2,6-dioxopiperidin-3-yl]carbamoyl]-3-fluorophenoxy)cyclobutyl]amino]methyl)morpholin-4-yl]-N-[(1r,3r)-3-(4-cyano-3-methoxyphenoxy)-2,2,4,4-tetramethylcyclobutyl]benzamide] | < 1 nM | ≥ 70%
COc1cc(O[C@H]2C(C)(C)[C@H](NC(=O)c3ccc(N4CCO[C@@H](CN(C(C)C)[C@H]5C[C@H](Oc6ccc(C(=O)N[C@H]7CCC(=O)NC7=O)c(F)c6)C5)C4)cc3)C2(C)C)ccc1C#N [Compound 44, 4-[(2S)-2-([isopropyl[(1R,3R)-3-(4-[[(3S)-2,6-dioxopiperidin-3-yl]carbamoyl]-3-fluorophenoxy)cyclobutyl]amino]methyl)morpholin-4-yl]-N-[(1R,3R)-3-(4-cyano-3-methoxyphenoxy)-2,2,4,4-tetramethylcyclobutyl]benzamide] | < 1 nM | ≥ 70%
COCCN(C[C@@H]1CN(c2ccc(C(=O)N[C@H]3C(C)(C)[C@H](Oc4cc(C)c(C#N)c(C)c4)C3(C)C)cc2)CCO1)[C@H]1C[C@@H](Oc2ccc(C(=O)N[C@H]3CCC(=O)NC3=O)c(F)c2)C1 [Compound 45, 4-[(2R)-2-{[(2-methoxyethyl)[(1r,3r)-3-(4-{[(3S)-2,6-dioxopiperidin-3-yl]carbamoyl}-3-fluorophenoxy)cyclobutyl]amino]methyl}morpholin-4-yl]-N-[(1r,3r)-3-(4-cyano-3,5-dimethylphenoxy)-2,2,4,4-tetramethylcyclobutyl]benzamide] | < 1 nM | ≥ 70%
Cc1cc(O[C@H]2C(C)(C)[C@H](NC(=O)c3ccc(N4CCC(CN5CCN(c6ccc(C(=O)N[C@H]7CCC(=O)NC7=O)cn6)CC5)CC4)cc3)C2(C)C)cc(C)c1C#N [Compound 46] | < 1 nM | ≥ 70%
Cc1cc(O[C@H]2C(C)(C)[C@H](NC(=O)c3ccc(N4CCO[C@H](CN(C(C)C)[C@H]5C[C@@H](Oc6ccc(C(=O)N[C@H]7CCC(=O)NC7=O)c(F)c6)C5)C4)cc3)C2(C)C)cc(C)c1C#N [Compound 47, 4-[(2R)-2-{[(propan-2-yl)[(1r,3r)-3-(4-{[(3S)-2,6-dioxopiperidin-3-yl]carbamoyl}-3-fluorophenoxy)cyclobutyl]amino]methyl}morpholin-4-yl]-N-[(1r,3r)-3-(4-cyano-3,5-dimethylphenoxy)-2,2,4,4-tetramethylcyclobutyl]benzamide] | < 1 nM | ≥ 70%
COCCN(C[C@H]1CN(c2ccc(C(=O)N[C@H]3C(C)(C)[C@@H](Oc4ccc(C#N)c(OC)c4)C3(C)C)cc2)CCO1)[C@H]1C[C@H](Oc2ccc(C(=O)N[C@@H]3CCC(=O)NC3=O)c(F)c2)C1 [Compound 50, 4-[(2S)-2-{[(2-methoxyethyl)[(1r,3r)-3-(4-{[(3R)-2,6-dioxopiperidin-3-yl]carbamoyl}-3-fluorophenoxy)cyclobutyl]amino]methyl}morpholin-4-yl]-N-[(1r,3r)-3-(4-cyano-3-methoxyphenoxy)-2,2,4,4-tetramethylcyclobutyl]benzamide] | < 1 nM | ≥ 70%
COCCN(C[C@H]1CN(c2ccc(C(=O)N[C@H]3C(C)(C)[C@@H](Oc4cc(C)c(C#N)c(C)c4)C3(C)C)cc2)CCO1)[C@H]1C[C@H](Oc2ccc(C(=O)N[C@@H]3CCC(=O)NC3=O)c(F)c2)C1 [Compound 51, 4-[(2S)-2-{[(2-methoxyethyl)[(1r,3r)-3-(4-{[(3R)-2,6-dioxopiperidin-3-yl]carbamoyl}-3-fluorophenoxy)cyclobutyl]amino]methyl}morpholin-4-yl]-N-[(1r,3r)-3-(4-cyano-3,5-dimethylphenoxy)-2,2,4,4-tetramethylcyclobutyl]benzamide] | < 1 nM | ≥ 70%
COc1cc(O[C@H]2C[C@H](N3CCOC4(CCN(c5ccc(C(=O)N[C@H]6C(C)(C)[C@H](Oc7cc(C)c(C#N)c(C)c7)C6(C)C)cc5)CC4)C3)C2)ccc1C(=O)NC1CCC(=O)NC1=O (stereo partly shown) [Compound 53, N-(2,6-dioxopiperidin-3-yl)-2-methoxy-4-[(1r,3r)-3-[9-(4-{[(1r,3r)-3-(4-cyano-3,5-dimethylphenoxy)-2,2,4,4-tetramethylcyclobutyl]carbamoyl}phenyl)-1-oxa-4,9-diazaspiro[5.5]undecan-4-yl]cyclobutoxy]benzamide] | < 1 nM | ≥ 70%
COc1cc(O[C@H]2C(C)(C)[C@H](NC(=O)c3ccc(N4CCC(O[C@H]5C[C@H](Oc6ccc(C(=O)NC7CCC(=O)NC7=O)c(OC)c6)C5)CC4)cc3)C2(C)C)ccc1C#N (stereo partly shown) [Compound 54, N-[(1r,3r)-3-(4-cyano-3-methoxyphenoxy)-2,2,4,4-tetramethylcyclobutyl]-4-{4-[(1r,3r)-3-{4-[(2,6-dioxopiperidin-3-yl)carbamoyl]-3-methoxyphenoxy}cyclobutoxy]piperidin-1-yl}benzamide] | < 1 nM | ≥ 70%
COc1cc(O[C@H]2C[C@H](OC3CCN(c4ccc(C(=O)N[C@H]5C(C)(C)[C@H](Oc6cc(C)c(C#N)c(C)c6)C5(C)C)cc4)CC3)C2)ccc1C(=O)NC1CCC(=O)NC1=O (stereo partly shown) [Compound 55, N-(2,6-dioxopiperidin-3-yl)-2-methoxy-4-[(1r,3r)-3-{[1-(4-{[(1r,3r)-3-(4-cyano-3,5-dimethylphenoxy)-2,2,4,4-tetramethylcyclobutyl]carbamoyl}phenyl)piperidin-4-yl]oxy}cyclobutoxy]benzamide] | < 1 nM | ≥ 70%

Next, values leading:

DC50 | Dmax | SMILES
< 1 nM | ≥ 70% | Cc1cc(O[C@H]2C(C)(C)[C@H](NC(=O)c3ccc(N4CCO[C@H](CN5CCN(c6ccc(C(=O)N[C@H]7CCC(=O)NC7=O)c(F)c6)CC5)C4)cc3)C2(C)C)cc(C)c1C#N [Compound 48, N-[(3S)-2,6-dioxopiperidin-3-yl]-2-fluoro-4-(4-{[(2R)-4-(4-{[(1r,3r)-3-(4-cyano-3,5-dimethylphenoxy)-2,2,4,4-tetramethylcyclobutyl]carbamoyl}phenyl)morpholin-2-yl]methyl}piperazin-1-yl)benzamide]
< 1 nM | ≥ 70% | Cc1cc(O[C@H]2C(C)(C)[C@H](NC(=O)c3ccc(N4CCO[C@@H](CN5CCN(c6ccc(C(=O)N[C@H]7CCC(=O)NC7=O)c(F)c6)CC5)C4)cc3)C2(C)C)cc(C)c1C#N [Compound 52, N-[(3S)-2,6-dioxopiperidin-3-yl]-2-fluoro-4-(4-{[(2S)-4-(4-{[(1r,3r)-3-(4-cyano-3,5-dimethylphenoxy)-2,2,4,4-tetramethylcyclobutyl]carbamoyl}phenyl)morpholin-2-yl]methyl}piperazin-1-yl)benzamide]
< 1 nM | ≥ 70% | COc1cc(C(=O)NC2CCC(=O)NC2=O)ccc1N1CCN(C[C@H]2CN(c3ccc(C(=O)N[C@H]4C(C)(C)[C@H](Oc5cc(C)c(C#N)c(C)c5)C4(C)C)cc3)CCO2)CC1 (stereo partly drawn) [Compound 56, N-(2,6-dioxopiperidin-3-yl)-3-methoxy-4-(4-{[(2S)-4-(4-{[(1r,3r)-3-(4-cyano-3,5-dimethylphenoxy)-2,2,4,4-tetramethylcyclobutyl]carbamoyl}phenyl)morpholin-2-yl]methyl}piperazin-1-yl)benzamide]
< 1 nM | ≥ 70% | COc1cc(O[C@H]2C(C)(C)[C@H](NC(=O)c3ccc(N4CCO[C@@H](CN5CCN(c6ccc(C(=O)NC7CCC(=O)NC7=O)cc6OC)CC5)C4)cc3)C2(C)C)ccc1C#N (stereo partly drawn) [Compound 57, N-(2,6-dioxopiperidin-3-yl)-3-methoxy-4-(4-{[(2S)-4-(4-{[(1r,3r)-3-(4-cyano-3-methoxyphenoxy)-2,2,4,4-tetramethylcyclobutyl]carbamoyl}phenyl)morpholin-2-yl]methyl}piperazin-1-yl)benzamide]
